One may read the melting point as the temperature, or range, at which the solid turns liquid.

pIC50: −log10 of the molar value. Values joined by “and” are separate entries in the source; they are usually repeats but may differ in a detail not shown here. Equal values may be shown once. Where a name gives a salt, the structure may show the parent alone. Read-outs that look alike come from different tables or passages of the source.

One data set relates to polyA.polyT. Description: DNA binding study: increase in thermal melting (ΔTm) of polyA.polyT. The following applies: increase in thermal melting of polyA.polyT in the presence of compound. Here is the method: DNA binding studies with polyA.polyT were carried out using established protocols. See Wilson, W. D., et al., Biochemistry, 32, 4098-4104 (1993).
The subject of another data set is L-6 rat mycoblast cells. Description: Cell toxicity assay in L-6 rat mycoblast cells. It counts as cell-based. The following applies: assay for cell toxicity, read-out: L6 Rat Mycoblast Cells IC50. How it is done:
(§1) In vitro antiprotozoal activities were measured following established protocols. […] E., et al., Bioorg.

For data set [1], the system named is Trypanosoma brucei rhodesiense. Description: In vitro antiprotozoal activity against T. b. r. It counts as cell-based. How it is done: as §1
For a further data set, the system named is Plasmodium falciparum. Briefly: In vitro antiprotozoal activity against P. f. Type of data set: cell-based. Here is the method: as §1
In a further data set the test system is Leishmania donovani. Briefly: In vitro antiprotozoal activity against L. d. The following applies: read-out: L.d. C50. It counts as cell-based. Here is the method:
as §1

The subject of data set [2] is STIB 900 strain of Trypanosoma brucei rhodesiense. Briefly: In vivo activity against T. b. r. STIB 900 in a mouse model. The following applies: for Survival: average days of survival, mice, untreated controls die between day 7 and 8; for Survival / Cures: days 3-6 post-infection; for in vivo activity against T. b. r. (in words) / cure rate compared with pentamidine and furamidine (in words): murine model; for cure rate compared with pentamidine and furamidine (in words): T. b. r. STIB 900; for Cures: number of mice that survive and are parasite free for 60 days, groups of four mice. How it is done:
The activities of compounds 6, 8, 14, 16 and 17, against the STIB 900 strain of Trypanosoma brucei rhodesiense (T. b. r.) in a mouse model are shown in Table 2. These values are compared to those of pentamidine and furamidine. Groups of four mice were infected intraperitoneally with […] bloodstream forms of T. b. r. STIB 900 which originates from a patient in Tanzania. On days 3, 4, 5, and 6 post-infection the experimental groups were treated with the drugs either by the intraperitoneal or for prodrugs by the oral route. Usually the highest tolerated dose was used which was determined in a pretoxicological experiment. Parasitemia of the mice was checked daily up to day 14 post-infection and thereafter 2 times per week up to day 60. One group of mice was not treated and acted as control. For relapsing mice, the day of death was recorded and the survival time determined.

Data set [3] has as its system Trypanosoma brucei rhodesiense, Plasmodium falciparum, Leishmania donovani. Briefly: In vitro antiprotozoal activities, overall statement on prodrugs. It counts as cell-based. The following applies: absence of the enzymes needed for bioconversion to the active diamidines. How it is done:
In vitro antiprotozoal activities were measured following established protocols. See Ismail, M. A., et al., J. Med. Chem., 46, 4761-4769 (2003); Stephens, C. E., et al., Bioorg. Med. Chem. Lett., 13, 2065-2069 (2003) (in vitro assay against Leishmania donovani). The activities of compounds 8, 14, 16, 17, 19, 22, 26a, 26b, 29a, 29b, and 33, 39, and 45 against Trypanosoma brucei riodesiense (T. b. r.), Plasmodium falciparum (P. f.), Leishmania donovani (L. d.), and L-6 rat mycoblast cells (as an assay for cell toxicity) are shown in Table 1. These values are compared to those of pentamidine and furamidine.

Setting [4] is: Trypanosoma brucei, RHODESIENSE

With `N=C(N)c1ccc2nc(-c3ccc(-c4ccc(C(=N)N)o4)o3)[nH]c2c1` [Compound 45], the Δ Tm in the data set on polyA.polyT stood at 23.2 °C. In addition, the pIC50 with L-6 rat mycoblast cells is 4.38.

Regarding `N=C(N)c1ccnc(-c2ccc(-c3ccc(-c4cc(C(=N)N)ccn4)s3)s2)c1` [Compound 26b, 5,5′-Bis-(4-amidino-2-pyridyl)-2,2′-bithiophene], the melting point is over 300 °C. This compound also showed a pIC50 in data set [1] (setting [4]) of 7.44. In addition, the pIC50 in the data set on Plasmodium falciparum (Plasmodium falciparum) was 7.47. Besides, the pIC50 in the data set with Leishmania donovani was under 4.30. Also, the pIC50 in the data set with L-6 rat mycoblast cells was under 3.80.

In the case of `CC(=O)O.N=C(N)c1ccc(-c2ccc(-c3ccc(C(=N)N)o3)o2)nc1` [Compound 14, 6-(5′-Amidino-2,2′-bifuran-5-yl)-nicotinamidine acetate salt], the Δ Tm in the data set with polyA.polyT was found to be 7.1 °C. Further, the pIC50 with L-6 rat mycoblast cells was 4.57. Besides, the Survival in data set [2] (ip, 10 mg/kg) is over 51.25 days. In data set [2], the “in vivo activity against T. b. r. (in words)” value was “good in vivo activity”; the “cure rate compared with pentamidine and furamidine (in words)” value is “better cure rates than pentamidine and furamidine”. Also, in data set [2] (ip, 10 mg/kg, acetate salt, 10 mg/kg), the Cures result was “three mice out of four and 3/4”.

With `N=C(N)c1ccc(-c2ccc(-c3ccc(C(=N)N)o3)o2)cc1` [Compound 8, 5′-(4-Amidinophenyl)-2,2′-bifuran-5-carboxamidine], the Δ Tm in the data set on polyA.polyT worked out at 10.8 °C. Also, the pIC50 in the data set on Plasmodium falciparum (Plasmodium falciparum) was 7.38. In addition, the pIC50 in the data set on L-6 rat mycoblast cells was 4.42. In data set [2] (ip, 20 mg/kg), the Survival is listed as over 45.5 days and the Cures is 2/4. Besides, in data set [2], the “in vivo activity against T. b. r. (in words)” value was “good in vivo activity”; the “cure rate compared with pentamidine and furamidine (in words)” value was “better cure rates than pentamidine and furamidine”.

Regarding `Cl.N=C(N)c1ccc(-c2ccc(-c3ccc(-c4ccc(C(=N)N)cc4)o3)o2)cc1` [Compound 17, 5,5′-bis-(4-Amidinophenyl)-2,2′-bifuran hydrochloride salt], in the data set with polyA.polyT, the Δ Tm was found to be 23.6 °C. In addition, the pIC50 in data set [1] (setting [4]) was 6.90; in the data set on Plasmodium falciparum (Plasmodium falciparum) it was at least 7.66; in the data set on Plasmodium falciparum (hydrochloride salt), 7.70; with Leishmania donovani, 6.00; in the data set with L-6 rat mycoblast cells, 4.97. Moreover, in data set [2] (ip, 10 mg/kg), the Survival amounted to 24 days. Moreover, the Cures in data set [2] (ip, 10 mg/kg) is on record as 0/4.

`N=C(NO)c1ccc(-c2ccc(-c3ccc(C(=N)NO)o3)o2)cc1` [Compound 6, N-Hydroxy-5′-[4-(N-hydroxyamidino)-phenyl]-2,2′-bifuran-5-carboxamidine]: in data set [2] (po, 75 mg/kg), the Survival was 20 days and the Cures is given as 0/4. In data set [3], the “in vitro activity (in words)” value was “poor in vitro activity”.

Turning to `N=C(N)c1ccc(OCCCCCOc2ccc(C(=N)N)cc2)cc1` [Pentamidine, reference compound], the pIC50 in the data set with Leishmania donovani is 5.70. In addition, in data set [2] (ip, 20 mg/kg), the Survival is reported as over 42.75 days and the Cures was 0/4.

For the compound `N=C(N)c1ccc(-c2ccc(-c3ccc(-c4ccc(C(=N)N)cn4)o3)o2)nc1` [Compound 22, 5,5′-Bis-(5-amidino-2-pyridyl)-2,2′-bifuran], the pIC50 in data set [1] (setting [4]) is 7.15; with Plasmodium falciparum (Plasmodium falciparum) it was 7.54; in the data set with Leishmania donovani, under 4.00; in the data set with L-6 rat mycoblast cells, 5.29.

In turn, `N=C(N)c1ccc(-c2ccc(-c3ccc(-c4ccc(C(=N)N)cn4)o3)o2)nc1` (as salt: salt) [Compound 22, 5,5′-Bis-(5-amidino-2-pyridyl)-2,2′-bifuran] showed a melting point of over 300 °C.

For the compound `N/C(=N\O)c1ccc(-c2ccc(-c3ccc(-c4ccc(/C(N)=N\O)cc4)o3)o2)cc1` [Compound 16, 5,5′-bis-(4-N-Hydroxybenzamidine)-2,2′-bifuran], the pIC50 was 5.06 in data set [1] (setting [4]), 5.53 with Plasmodium falciparum (Plasmodium falciparum) and under 3.74 in the data set with L-6 rat mycoblast cells. Besides, the Survival in data set [2] (po, 100 mg/kg) worked out at 5.5 days. Further, the Cures in data set [2] (po, 100 mg/kg) is reported as 0/4. The “in vitro activity (in words)” value in data set [3] was “poor in vitro activity”.

In turn, `N=C(N)c1ccc(-c2ccc(-c3ccc(-c4ccc(C(=N)N)cc4)s3)s2)cc1` [Compound 26a, 5,5′-Bis-(4-amidinophenyl)-2,2′-bithiophene] returned a melting point of over 300 °C. For the same compound, the pIC50 in data set [1] is 7.82. Also, in data set [1] (setting [4]), the pIC50 is at least 7.59. Moreover, the pIC50 in the data set with Plasmodium falciparum is 7.66. Moreover, the pIC50 in the data set on Plasmodium falciparum (Plasmodium falciparum) is at least 7.66. The pIC50 in the data set with L-6 rat mycoblast cells was 4.05.

Regarding `N=C(NO)c1ccc(-c2ccc(-c3ccc(C(=N)NO)o3)o2)nc1` [Compound 13, N-Hydroxy-6-[5′-(N-hydroxyamidino)-2,2′-bifuran-5-yl]-nicotinamidine], the melting point fell in the range of 248 to 250 °C.

For the compound `CONC(=N)c1ccc(-c2ccc(-c3ccc(-c4ccc(C(=N)NOC)cc4)o3)o2)cc1` [Compound 19, 5,5′-Bis-[4-(N-methoxyamidino)phenyl]-2,2′-bifuran], the pIC50 in data set [1] (setting [4]) was 4.44; in the data set with Plasmodium falciparum (Plasmodium falciparum), under 5.13; in the data set on L-6 rat mycoblast cells, under 3.88. The “in vitro activity (in words)” value in data set [3] is “poor in vitro activity”.

`N=C(N)c1ccnc(-c2ccc(-c3ccc(-c4cc(C(=N)N)ccn4)[se]3)[se]2)c1` [Compound 29b, 5,5′-Bis-(4-amidino-2-pyridyl)-2,2′-biselenophene] had a melting point of over 300 °C. For the same compound, in data set [1] (setting [4]), the pIC50 is 6.82. In the data set on Plasmodium falciparum (Plasmodium falciparum), this compound had a pIC50 of 7.12. In addition, the pIC50 in the data set on Leishmania donovani was 4.70. Moreover, in the data set on L-6 rat mycoblast cells, the pIC50 was under 3.84.

Take `N=C(N)c1ccc(-c2ccc(-c3ccc(-c4ccc(C(=N)N)cc4)[se]3)[se]2)cc1` [Compound 29a, 5,5′-Bis-(4-amidinophenyl)-2,2′-biselenophene]: the melting point was over 300 °C. In data set [1], the pIC50 was 7.59. Besides, in data set [1] (setting [4]), the pIC50 was at least 7.59. In the data set on Plasmodium falciparum, the pIC50 was 7.85. The compound further had a pIC50 in the data set on Plasmodium falciparum (Plasmodium falciparum) of at least 7.66. The pIC50 in the data set on L-6 rat mycoblast cells is 4.87.

(Values after patent US7517893B2, “Bichalcophenes and their prodrugs as antiprotozoal agents” (The University of North Carolina at Chapel Hill, priority 2005, dated 2009).)
